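Method: 48-hour compound exposure of cells in 96-well plates, five concentrations, linear interpolation of endpoints. Abbreviation: GI50, concentration required for 50% inhibition of growth.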 Active and inactive are the calls of the source. No stated cut-off is given here; in the data, active = GI50 up to about 1.1 µM and inactive = higher. Bounds are passed on as bounds.

Some test systems named below: BT-549; MDA-N; MCF7; T47D; Malme-3M; SK-OV-3; OVCAR-5; SK-MEL-28; SF-268; U-251; K562; HOP-92; SK-MEL-5; SF-539; LOX IMVI; NCI-H226; MDA-MB-231; MDA-MB-435; EKVX; KM12.
Holding throughout (experiment): inhibition of tumour cell growth, NCI panel, 48 h

Turning to `CCCc1c(Cl)nc(Cl)nc1Cl`, the GI50 was 0.377 µM (active) in the assay with BT-549; 0.211 µM (active) in the assay on MDA-N; 1.73 µM (inactive) in the assay with MCF7; 3.08 µM (inactive) in the assay with T47D; < 0.0208 µM (active) in the assay on Malme-3M; > 100 µM (inactive) with SK-OV-3. The GI50 in the assay with OVCAR-5 was 1.54 µM (inactive); in the assay with SK-MEL-28, 0.336 µM (active); in the assay on SF-268, 1.29 µM (inactive); with U-251, 1.22 µM (inactive); in the assay with K562, 0.0723 µM (active); in the assay on HOP-92 it was 2.65 µM (inactive). Further, the GI50 in the assay on SK-MEL-5 is 0.0594 µM (active); with SF-539, 2.54 µM (inactive); in the assay on LOX IMVI it was < 0.01 µM (active); in the assay with NCI-H226 it was 0.0222 µM (active); with MDA-MB-231 it was 0.425 µM (active); in the assay on MDA-MB-435, 0.471 µM (active). Moreover, the figures for the GI50 in the assay on EKVX and in the assay with KM12 were > 10 µM (inactive) and 3.61 µM (inactive), respectively.
Regarding `Cc1ccc(NC(=O)CSc2nc(O)nc3[nH]cnc23)cc1`, the GI50 was 54.5 µM (inactive) with BT-549; 90.2 µM (inactive) in the assay on MDA-N; 45.2 µM (inactive) with MCF7; > 100 µM (inactive) in the assay on T47D; > 100 µM (inactive) in the assay on Malme-3M; > 100 µM (inactive) in the assay with SK-OV-3. Besides, the GI50 with OVCAR-5 is 49.7 µM (inactive); with SK-MEL-28, > 100 µM (inactive); in the assay with SF-268, 48.5 µM (inactive); with U-251, 41.1 µM (inactive); with K562 it was > 100 µM (inactive); in the assay with HOP-92, > 100 µM (inactive). Besides, the GI50 in the assay with SK-MEL-5 is 86.9 µM (inactive); with SF-539, 24 µM (inactive); in the assay on LOX IMVI, 35.6 µM (inactive); with NCI-H226 it was 33.8 µM (inactive); in the assay with MDA-MB-231 it was > 100 µM (inactive); in the assay on MDA-MB-435, 53.8 µM (inactive). Besides, the GI50 in the assay with EKVX and in the assay on KM12 was > 100 µM (inactive) in each case.
As to `Cc1ccc([N+](=O)[O-])cc1S(=O)(=O)Nc1ccc(C2=NN(c3ccc([N+](=O)[O-])cc3[N+](=O)[O-])C(c3ccccc3O)C2)cc1` (stereo not given), the GI50 with BT-549 is 28.2 µM (inactive); in the assay with MDA-N, 29.3 µM (inactive); in the assay on MCF7, 27.9 µM (inactive); in the assay on T47D it was 27.6 µM (inactive); with Malme-3M, 41.7 µM (inactive); in the assay on SK-OV-3 it was 57 µM (inactive). For the same compound, the GI50 with OVCAR-5 is > 100 µM (inactive); in the assay with SK-MEL-28, 75.5 µM (inactive); in the assay with SF-268, 35.6 µM (inactive); with U-251 it was 37.1 µM (inactive); in the assay with K562 it was 21.8 µM (inactive); with HOP-92, 26.6 µM (inactive). The GI50 in the assay on SK-MEL-5 is 20 µM (inactive); with SF-539, 55.5 µM (inactive); with LOX IMVI, 42 µM (inactive); in the assay on NCI-H226, 36.6 µM (inactive); with MDA-MB-231, 20.6 µM (inactive); in the assay on MDA-MB-435, 39.4 µM (inactive). The GI50 in the assay on EKVX is 26 µM (inactive); in the assay with KM12, 37 µM (inactive).
`N#Cc1c2c(c(N3CCOCC3)n3c1nc1ccccc13)CCCC2`: the GI50 in the assay with BT-549 was 40.1 µM (inactive); with MDA-N it was 18.4 µM (inactive); in the assay with MCF7, 26.2 µM (inactive); with T47D, 19.2 µM (inactive); in the assay on Malme-3M, 17.7 µM (inactive); with SK-OV-3, 22.6 µM (inactive). Also, the GI50 in the assay with OVCAR-5 is 21.1 µM (inactive); in the assay with SK-MEL-28, 23.5 µM (inactive); in the assay with SF-268, > 100 µM (inactive); in the assay with U-251 it was 14.3 µM (inactive); in the assay on K562, 25.1 µM (inactive); in the assay with HOP-92, 17.1 µM (inactive). Further, the GI50 is 18.7 µM (inactive) with SK-MEL-5; 19.1 µM (inactive) in the assay on SF-539; 17.3 µM (inactive) in the assay with LOX IMVI; 14 µM (inactive) with NCI-H226; 21.3 µM (inactive) with MDA-MB-231; 20.2 µM (inactive) with MDA-MB-435. Moreover, the values for the GI50 with EKVX and in the assay with KM12 were 16.2 µM (inactive) and > 100 µM (inactive), respectively.
Regarding `N#CC(NCCc1ccccc1)c1ccccc1` (stereo not given), the GI50 in the assay with BT-549, in the assay on MDA-N, in the assay on MCF7, in the assay on T47D, with Malme-3M and in the assay with SK-OV-3 was > 100 µM (inactive) each time. In addition, the GI50 in the assay with OVCAR-5 is > 100 µM (inactive); in the assay with SK-MEL-28 it was > 100 µM (inactive); with SF-268 it was > 100 µM (inactive); with U-251 it was > 100 µM (inactive); in the assay with K562, > 10 µM (inactive); in the assay on HOP-92 it was > 100 µM (inactive). The GI50 in the assay on SK-MEL-5, in the assay with SF-539, in the assay on LOX IMVI, with NCI-H226, in the assay with MDA-MB-231 and in the assay with MDA-MB-435 was > 100 µM (inactive) throughout. Also, the GI50 in the assay on EKVX and in the assay with KM12 was > 100 µM (inactive) throughout.
For the compound `COc1cc(C(=O)O[C@@H]2[C@@H](OC(=O)c3cc(OC)c(OC)c(OC)c3)[C@@H](OC)O[C@@H]3CO[C@@H](c4ccccc4)O[C@@H]23)cc(OC)c1OC`, the GI50 in the assay on BT-549 was 50.4 µM (inactive); with MDA-N, > 100 µM (inactive); with MCF7, > 100 µM (inactive); in the assay on T47D, > 100 µM (inactive); in the assay with Malme-3M, > 100 µM (inactive); with SK-OV-3, > 100 µM (inactive). The GI50 in the assay on OVCAR-5, with SK-MEL-28, in the assay on SF-268, in the assay on U-251, in the assay with K562 and in the assay on HOP-92 was > 100 µM (inactive) in each case. Moreover, the GI50 in the assay with SK-MEL-5, in the assay with SF-539, in the assay with LOX IMVI, with NCI-H226, in the assay on MDA-MB-231 and in the assay on MDA-MB-435 was > 100 µM (inactive) each time. The GI50 with EKVX and with KM12 was > 100 µM (inactive) throughout.
Consider `COc1c(OC)c(OC)c(C(=O)/C=C/c2ccccc2)c(OC)c1OC`, for which the GI50 in the assay with BT-549 is 3.79 µM (inactive); in the assay on MDA-N it was 5.51 µM (inactive); with MCF7, 5.82 µM (inactive); in the assay with T47D it was 9.02 µM (inactive); with Malme-3M, 10.1 µM (inactive); in the assay with SK-OV-3, 12.3 µM (inactive). For the same compound, the GI50 is 16.5 µM (inactive) in the assay on OVCAR-5; 13.4 µM (inactive) in the assay with SK-MEL-28; 3.69 µM (inactive) in the assay with SF-268; 7.46 µM (inactive) in the assay with U-251; 4.17 µM (inactive) in the assay on K562; 3.13 µM (inactive) with HOP-92. Moreover, the GI50 in the assay on SK-MEL-5 is 13.5 µM (inactive); in the assay with SF-539 it was 9.02 µM (inactive); with LOX IMVI it was 10 µM (inactive); in the assay with NCI-H226, 8.05 µM (inactive); in the assay with MDA-MB-231, 14.5 µM (inactive); with MDA-MB-435 it was 5.06 µM (inactive). Besides, the values for the GI50 in the assay with EKVX and with KM12 were 13.9 µM (inactive) and 4.1 µM (inactive), respectively.
For `CNCCCNC1(c2cc3ccccc3s2)CCCCC1`, the GI50 with BT-549 was 14.6 µM (inactive); with MDA-N, 2.2 µM (inactive); in the assay with MCF7, 4.12 µM (inactive); in the assay on T47D, 4.92 µM (inactive); with Malme-3M, 2.28 µM (inactive); in the assay with SK-OV-3, 15.7 µM (inactive). The GI50 was 14.3 µM (inactive) in the assay on OVCAR-5; 1.64 µM (inactive) with SK-MEL-28; 11.3 µM (inactive) in the assay with SF-268; 4.65 µM (inactive) in the assay on U-251; 1.98 µM (inactive) in the assay with K562; 2.39 µM (inactive) in the assay on HOP-92. Besides, the GI50 in the assay on SK-MEL-5 is 2.21 µM (inactive); in the assay with SF-539 it was 2.36 µM (inactive); in the assay on LOX IMVI, 2.79 µM (inactive); in the assay on NCI-H226, 19.5 µM (inactive); in the assay on MDA-MB-231, 2.99 µM (inactive); with MDA-MB-435, 2.55 µM (inactive). For the same compound, the GI50 is 13.3 µM (inactive) with EKVX and 5.61 µM (inactive) in the assay with KM12.
`c1nc(N2CC2)c2cnn(C3CCCCO3)c2n1` (stereo not given): the GI50 in the assay on BT-549, in the assay with MDA-N, with MCF7, with T47D, with Malme-3M and in the assay with SK-OV-3 was > 100 µM (inactive) throughout. Besides, the GI50 in the assay with OVCAR-5 is > 100 µM (inactive); with SK-MEL-28, > 100 µM (inactive); with SF-268, > 100 µM (inactive); in the assay on U-251, > 100 µM (inactive); in the assay with K562, 36.6 µM (inactive); in the assay with HOP-92, > 100 µM (inactive). In addition, the GI50 in the assay with SK-MEL-5, in the assay on SF-539, in the assay on LOX IMVI, in the assay with NCI-H226, in the assay on MDA-MB-231 and with MDA-MB-435 was > 100 µM (inactive) in each case. Besides, the GI50 in the assay with EKVX and in the assay on KM12 was > 100 µM (inactive) each time.
Regarding `COc1cc2c(/C=C3/C(=O)N(c4ccccc4)c4ccccc43)c(Cl)[nH]c2cc1C`, the GI50 in the assay on BT-549 was 2.48 µM (inactive); in the assay on MDA-N, 1.45 µM (inactive); with MCF7, 3.01 µM (inactive); with T47D it was 2.07 µM (inactive); in the assay on Malme-3M it was 4.29 µM (inactive); in the assay on SK-OV-3, 1.89 µM (inactive). The GI50 with OVCAR-5 is 3.45 µM (inactive); with SK-MEL-28, 3.57 µM (inactive); in the assay on SF-268, 3.47 µM (inactive); with U-251, 3.24 µM (inactive); in the assay on K562, 2.84 µM (inactive); with HOP-92, 4.44 µM (inactive). Further, the GI50 in the assay on SK-MEL-5 is 2.32 µM (inactive); in the assay with SF-539, 2.77 µM (inactive); with LOX IMVI, 2.94 µM (inactive); in the assay on NCI-H226, 24.3 µM (inactive); with MDA-MB-231, 3.21 µM (inactive); in the assay on MDA-MB-435 it was 0.998 µM (active). Also, the GI50 in the assay with EKVX was 3.6 µM (inactive); with KM12, 2.14 µM (inactive).

The record behind these values is ChEMBL document CHEMBL1201862, “PubChem BioAssay data set” (2004).
